The values below come from patent publication US20260315446A1, “ANTIFUNGAL COMPOUNDS AND USES THEREOF” (priority 2023, published 2026).

The structures appear in SMILES notation. “Also recorded” adds a separate entry of the source. Where two headings read alike, the source gives them in different places.

Data set [1] can be described thus: Pharmacokinetics in whole blood. Format: in vivo, mouse (CD-1). The settings on record: for Cmax / Tmax / AUC / CL/F / half-life: mouse, in vivo, ip, 40 mg/kg, 40 mg/kg i.p. single dose, whole blood; for AUC: read-out: AUC (area under the curve); for CL/F: read-out: CI/F (clearance as Dose/AUCINF) (converted). On the procedure:
For the lead compound JH-FK-08, the mechanism of action resulting in antifungal activity was tested for conservation of calcineurin inhibition. To probe the JH-FK-08 mechanism of action, MICs of JH-FK-08 were determined with fungal mutants that lack the drug-binding protein FKBP12 or have mutations in the binding site on calcineurin that prevent FKBP12-FK506 binding and inhibition. […] Taken together, these findings support the hypothesis that JH-FK-08 requires FKBP12 for antifungal activity, and the target of the FKBP12-JH-FK-08 complex is calcineurin. The length of time that drugs are active in vivo is critical information relevant to drug development, and the time frame of drug activity can have a drastic impact on treatment regimen and efficacy. Therefore, the pharmacokinetic profiles of FK506 and JH-FK-08 were investigated. Three male and three female CD1 mice were administered a single dose of JH-FK-08 or FK506 at 40 mg/kg. Whole blood samples were taken over a 24-hour period, and the drug concentration remaining in the blood was determined. Pharmacokinetic parameters were calculated using a non-compartmental approach (see, Gabrielsson J, Weiner D. 2012. Methods Mot Biol Clifton NJ 929:377-389). […] When assessing specific pharmacokinetic measures, sex differences began to emerge.
Male (n=3, avg. 28 g) and female (n=3, avg. 25 g) CD-1 mice were injected intraperitoneally with 40 mg/kg of either JH-FK-08 or FK506. The drug formulation was 10% Kolliphor/10% ethanol/80% PBS given as 10 μL/g body weight (i.e., 200 μL per 20 g mouse). Blood (~30 μL) was collected serially (“tail snip”) at 10, 20, and 45 min and 1.5, 3, 6, 12, and 24 h into vials containing […] of 75 mg/mL K2EDTA in water and immediately frozen until the day of liquid chromatography-tandem-mass spectroscopy (LC/MS/MS) analysis. Blood concentration/time data were utilized to calculate relevant PK parameters using the non-compartmental approach and extravascular administration model within WinNonlin (2.1) software.
In a 0.5-mL polypropylene vial, 10 μL blood and 20 μL of acetonitrile fortified with 100 ng/mL FK520 (internal standard) were vigorously agitated in the FastPrep FP120 apparatus (Thermo-Savant) at speed four for 45 s. After centrifugation for 5 min at 16,000 rpm, 20 μL of supernatant was transferred to a polypropylene autosampler vial. LC/MS/MS (Agilent 1200 series HPLC and Sciex/Applied Biosystems API 5500 QTrap) was utilized to quantify JH-FK-08 and FK506 in mouse blood. Analytical column: Agilent Eclipse Plus (C18, 1.8 μm, 50×4.6 mm), at 40° C. Mobile phase: (A) 0.1% formic acid, 10 mM ammonium acetate, 2% acetonitrile in water, and (B) methanol. Elution gradient: 0-0.1 min 30%-98% B, 0.1-1.5 min 98% B, 1.5-1.6 min 98%-30% B, and 1.6-2.1 min 30% B. Run time: 5 min. Injection volume: 10 μL. Mass spectrometer parameters (voltages, gas flow, and temperature) were optimized by infusion of 100 ng/mL of analytes in the mobile phase at 10 μL/min using the Analyst 1.6.2 software tuning module. The MS/MS (m/z) transitions used for quantification were 864.4/846.5 (JH-FK-08), 821.4/768.5 (FK506), and 809.4/756.5 (FK520, internal standard). A set of calibrator samples in drug-free blood was prepared by adding appropriate amounts of pure analyte (JH-FK-08 or FK506) in the […] range. The calibration samples were analyzed alongside the experimental samples. The accuracy acceptance criterion was 85% for each but the lowest level (2.43 ng/mL, 80%, LLOQ). Analyst 1.6.2 software was used for data acquisition, integration of the chromatograms, calibration curve calculation, and quantification of the study samples.

Another data set relates to C. neoformans strain H99. Put plainly: Survival during cryptococcal infection (Example 3). Format: in vivo, Cryptococcus neoformans in A/J mice. On the procedure: Finally, whether the antifungal efficacy translates into extended survival during infection was assessed. To test the impact of treatment on survival, murine survival was monitored in the cryptococcosis infection model. Following the same protocol of infection and dosing as in the fungal burden experiment, animal survival was monitored following infection and 2 weeks of intraperitoneal dosing. Fluconazole treatment extended median survival from 16 to 27 days.
C. neoformans inoculum was prepared by growing a 5-mL overnight YPD culture spinning in a tissue culture roller drum at 30° C. Cells were pelleted by centrifugation and washed in sterile PBS three times. Cell density was determined by hemocytometer, and cells were diluted to 2×10^6 cells/mL. Mice (10 to 20 g) were infected with 10^5 cells of C. neoformans H99. For inhalation infection, animals were anesthetized with isoflurane before 50 μL of inoculum was pipetted onto the upright nasal passages of each animal. Following inhalation of the inoculum, animals were monitored for post anesthesia recovery. Treatment of animals began 4 hours post infection and was continued for 14 days. Fungal burden was assessed 24 h after the final dose.
For survival curve analysis, animals were monitored until reaching defined humane end points, including social isolation, hunched posture, weight loss, lack of grooming, and labored breathing, and were then euthanized via CO2 inhalation. For fungal burden analysis, mice were euthanized following 2 weeks of treatment with a designated antifungal, vehicle, or combination. Brain, lung, and spleen were harvested from animals, weighed, and homogenized in sterile PBS using steel beads and a bead beater. Each organ homogenate was serially diluted 10-fold to 10-4 in PBS. One hundred microliters of each dilution was plated on YPD plates supplemented with YPD 50 μg/mL ampicillin and 30 μg/mL chloramphenicol, incubated at 30° C. for 2 days, and assessed for colony-forming units. CFU per organ weight was calculated and plotted using GraphPad Prism 9.

The mark [2] stands for this setting: females, read-out: t1/2 (3-12 h) (half-life) (converted).
The mark [3] stands for this setting: females, read-out: t1/2 (12-24 h) (half-life) (converted).
[4] abbreviates: males, read-out: t1/2 (3-12 h) (half-life) (converted).
The mark [5] stands for this setting: males, read-out: t1/2 (12-24 h) (half-life) (converted).

For the compound `C=CCC1C=C(C)CC(C)CC(OC)C2OC(O)(C(=O)C(=O)N3CCCCC3C(=O)OC(C(C)=CC3CCC(O)C(OC)C3)C(C)C(O)CC1=O)C(C)CC2OC` (stereo not shown) [FK506, reference compound], the Cmax (in general, the highest concentration seen after dosing) in data set [1] (females) was found to be 5960 ng/mL; in data set [1] (males) it was 4510 ng/mL. Moreover, the Tmax (commonly the time from dosing to the highest level) in data set [1] (females) came to 1.11 h; in data set [1] (males) it was 0.75 h. Also, the AUC (as a rule, the area under the concentration-time curve, a measure of exposure) in data set [1] (females) is 27100 ng·h/mL; in data set [1] (males), 15200 ng·h/mL. Further, the CL/F in data set [1] (females) is 25.9 mL/min/kg; in data set [1] (males) it was 49.4 mL/min/kg. The half-life in data set [1] (setting [2]) was 1.35 h; in data set [1] (setting [3]), 3.59 h; in data set [1] (setting [4]) it was 1.48 h; in data set [1] (setting [5]), 2.46 h.
As to `CC[C@@H]1/C=C(\C)C[C@H](C)C[C@H](OC)[C@H]2O[C@@](O)(C(=O)C(=O)N3CCCC[C@H]3C(=O)O[C@H](/C(C)=C/C3CC[C@@H](O)[C@H](OC)C3)[C@H](C)[C@@H](O)C/C1=N/NC(=O)OC)[C@H](C)C[C@@H]2OC` (stereo partly shown) [JH-FK-08], the “whole blood drug concentration over time versus FK506” value in data set [1] (40 mg/kg single dose) is listed as “No significant differences across groups were observed in whole blood samples of drug concentration over time; also recorded: no statistically significant difference between groups”. Moreover, the Cmax came out at 7500 ng/mL in data set [1] (females) and 4070 ng/mL in data set [1] (males). Moreover, the Tmax in data set [1] (females) came out at 2.5 h; in data set [1] (males), 1.25 h. Further, the AUC was 31400 ng·h/mL in data set [1] (females) and 15600 ng·h/mL in data set [1] (males). The values for the CL/F in data set [1] (females) and in data set [1] (males) were 21.5 mL/min/kg and 46.4 mL/min/kg, respectively. The half-life was 1.14 h in data set [1] (setting [2]), 1.88 h in data set [1] (setting [3]), 1.29 h in data set [1] (setting [4]) and 2.26 h in data set [1] (setting [5]). Moreover, the “survival compared to vehicle/untreated” value in the data set on C. neoformans strain H99 (2 weeks twice daily i.p. 40 mg/kg, 40 mg/kg) is on record as “more than doubled median survival; also recorded: more than double murine survival time”. In addition, the median survival with C. neoformans strain H99 (2 weeks twice daily i.p., fluconazole 6 mg/kg, JH-FK-08 40 mg/kg, vehicle 16 days) is on record as 33 days. Further, in the data set with C. neoformans strain H99 (in vivo), the “combination effect with fluconazole” value is given as “additive activity in combination with fluconazole in vivo”.
